In the assay the target is T1, human neutrophil elastase (HNE) (Homo sapiens, UniProt P08246).
T1 construct: purchased Sigma-Aldrich E8140
T1 sequence (P08246 30-267): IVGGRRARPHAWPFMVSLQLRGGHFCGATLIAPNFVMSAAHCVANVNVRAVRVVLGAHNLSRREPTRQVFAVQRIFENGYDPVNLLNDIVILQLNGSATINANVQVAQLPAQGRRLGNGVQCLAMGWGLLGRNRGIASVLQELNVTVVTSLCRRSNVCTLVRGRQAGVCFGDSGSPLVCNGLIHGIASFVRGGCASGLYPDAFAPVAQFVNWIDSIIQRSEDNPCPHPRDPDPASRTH
Briefly: Protease inhibition assay, human neutrophil elastase (chromogenic substrate, Dixon method). In kind it is biochemical. The text has this: Human neutrophils elastase (HNE, E8140), porcine pancreatic elastase (PPE, E0127), cathepsin G (CG, C4428), human trypsin (T6424), α-chymotrypsin from human pancreas (C8946), and thrombin from human plasma (T4393) were all purchased from Sigma-Aldrich (USA). Factor Xa (FXa, HFXa 1011) and Factor XIIa (FXIIa, HFXIIa 1212a) were from Enzyme Research Laboratories (South Bend, IN, USA). Kallikrein from human plasma (420307) was from Merck Millipore (Billerica, MA, USA).
Substrate for HNE and PPE (MeOSuc-Ala-Ala-Pro-Val-pNA, 324696) was purchased from Merck Millipore (USA). Substrates for CG (Succinyl-Ala-Ala-Pro-Phe-pNA, 573462), trypsin (Nalpha-Benzoyl-L-arginine 4-nitroanilide hydrochloride, B3133), FXa (CH3OCO-D-CHA-Gly-Arg-pNA-AcOH, F3301), chymotrypsin (N-Succinyl-Gly-Gly-Phe-pNA, S1899), thrombin (β-Ala-Gly-Arg-pNA diacetate, T3068), and kallikrein (Z-Phe-Arg 7-amido-4-methylcoumarin hydrochloride, C9521) were purchased from Sigma-Aldrich (USA).
As mentioned in our previous study, experiments for protease inhibitory activity were assayed in buffer (0.05 M Tris-HCl, pH 7.8) at 37 °C. […] At the end of the incubation, the reaction was initiated by the addition of the exclusive substrate solution and monitored by recording the absorbance at 405 nm every 30 s for 30 min. Enzyme activity in each well was calculated based on the initial slope of the reaction curve, and percentage of the initial slope of the uninhibited reaction was expressed. The inhibition constant Ki value was determined according to the Dixon method.

pKi: −log10 of the molar value. Where a SMILES comes first, the peptide text is derived from it. Bridges are numbered along the chain shown (N, C = ends).

Consider `CC[C@H](C)[C@@H]1NC(=O)[C@H](C)NC(=O)[C@@H]2CCCN2C(=O)[C@@H]2CSSC[C@H](NC(=O)[C@H](CO)NC(=O)[C@H](CC(N)=O)NC(=O)[C@H](CO)NC(=O)[C@H](Cc3ccc(O)cc3)NC(=O)[C@H](CCSC)NC(=O)[C@H](CCCNC(=N)N)NC(=O)CNC(=O)[C@H](Cc3ccccc3)NC(=O)[C@H](CCC(=O)O)NC(=O)[C@H](CC(=O)O)NC(=O)[C@H](Cc3ccccc3)NC(=O)[C@H](C(C)C)NC(=O)[C@@H]3CCCN3C(=O)[C@H](CCC(N)=O)NC(=O)[C@H](Cc3ccc(O)cc3)NC1=O)C(=O)N[C@@H](C)C(=O)N[C@@H](CCSC)C(=O)N[C@@H](CCC(N)=O)C(=O)N[C@@H](CCCNC(=N)N)C(=O)N[C@@H](C)C(=O)N[C@@H](CCCNC(=N)N)C(=O)N[C@H](C(=O)N[C@@H](CC(C)C)C(=O)N[C@@H](CCCNC(=N)N)C(=O)NCC(=O)O)CSSC[C@H](N)C(=O)N1CCC[C@H]1C(=O)N[C@@H](CCC(N)=O)C(=O)N[C@@H](C(C)C)C(=O)N2` [E25A] (H-CPQVCPAIYQPVFDEFGRMYSNSCAMQRARCLRG-OH; disulfide 1-31, 5-24), for which the pKi is below 3.00. `CC[C@H](C)[C@@H]1NC(=O)[C@H](C)NC(=O)[C@@H]2CCCN2C(=O)[C@@H]2CSSC[C@H](NC(=O)[C@H](CO)NC(=O)[C@H](CC(N)=O)NC(=O)[C@H](CO)NC(=O)[C@H](Cc3ccc(O)cc3)NC(=O)[C@H](CCSC)NC(=O)[C@H](CCCNC(=N)N)NC(=O)CNC(=O)[C@H](Cc3ccccc3)NC(=O)[C@H](CCC(=O)O)NC(=O)[C@H](CC(=O)O)NC(=O)[C@H](Cc3ccccc3)NC(=O)[C@H](C(C)C)NC(=O)[C@@H]3CCCN3C(=O)[C@H](CCC(N)=O)NC(=O)[C@H](Cc3ccc(O)cc3)NC1=O)C(=O)N[C@@H](CCC(=O)O)C(=O)N[C@@H](CCSC)C(=O)N[C@@H](CCC(N)=O)C(=O)N[C@@H](CCCNC(=N)N)C(=O)N[C@@H](C)C(=O)N[C@@H](CCCNC(=N)N)C(=O)N[C@H](C(=O)N[C@@H](CC(C)C)C(=O)N[C@@H](CCCNC(=N)N)C(=O)NCC(=O)O)CSSC[C@H](N)C(=O)N[C@@H](C)C(=O)N[C@@H](CCC(N)=O)C(=O)N[C@@H](C(C)C)C(=O)N2` [P2A] (H-CAQVCPAIYQPVFDEFGRMYSNSCEMQRARCLRG-OH; disulfide 1-31, 5-24) gave a pKi of 7.00. Take `CC[C@H](C)[C@@H]1NC(=O)[C@H](C)NC(=O)[C@H](C)NC(=O)[C@@H]2CSSC[C@H](NC(=O)[C@H](CO)NC(=O)[C@H](CC(N)=O)NC(=O)[C@H](CO)NC(=O)[C@H](Cc3ccc(O)cc3)NC(=O)[C@H](CCSC)NC(=O)[C@H](CCCNC(=N)N)NC(=O)CNC(=O)[C@H](Cc3ccccc3)NC(=O)[C@H](CCC(=O)O)NC(=O)[C@H](CC(=O)O)NC(=O)[C@H](Cc3ccccc3)NC(=O)[C@H](C(C)C)NC(=O)[C@@H]3CCCN3C(=O)[C@H](CCC(N)=O)NC(=O)[C@H](Cc3ccc(O)cc3)NC1=O)C(=O)N[C@@H](CCC(=O)O)C(=O)N[C@@H](CCSC)C(=O)N[C@@H](CCC(N)=O)C(=O)N[C@@H](CCCNC(=N)N)C(=O)N[C@@H](C)C(=O)N[C@@H](CCCNC(=N)N)C(=O)N[C@H](C(=O)N[C@@H](CC(C)C)C(=O)N[C@@H](CCCNC(=N)N)C(=O)NCC(=O)O)CSSC[C@H](N)C(=O)N1CCC[C@H]1C(=O)N[C@@H](CCC(N)=O)C(=O)N[C@@H](C(C)C)C(=O)N2` [P6A] (H-CPQVCAAIYQPVFDEFGRMYSNSCEMQRARCLRG-OH; disulfide 1-31, 5-24): the pKi is 6.98. Regarding `CC[C@H](C)[C@@H]1NC(=O)[C@H](C)NC(=O)[C@@H]2CCCN2C(=O)[C@@H]2CSSC[C@H](NC(=O)[C@H](CO)NC(=O)[C@H](CC(N)=O)NC(=O)[C@H](CO)NC(=O)[C@H](Cc3ccc(O)cc3)NC(=O)[C@H](CCSC)NC(=O)[C@H](CCCNC(=N)N)NC(=O)CNC(=O)[C@H](Cc3ccccc3)NC(=O)[C@H](CCC(=O)O)NC(=O)[C@H](CC(=O)O)NC(=O)[C@H](Cc3ccccc3)NC(=O)[C@H](C(C)C)NC(=O)[C@@H]3CCCN3C(=O)[C@H](CCC(N)=O)NC(=O)[C@H](Cc3ccc(O)cc3)NC1=O)C(=O)N[C@@H](CCC(=O)O)C(=O)N[C@@H](CCSC)C(=O)N[C@@H](CCC(N)=O)C(=O)N[C@@H](CCCNC(=N)N)C(=O)N[C@@H](C)C(=O)N[C@@H](CCCNC(=N)N)C(=O)N[C@H](C(=O)N[C@@H](CC(C)C)C(=O)N[C@@H](CCCNC(=N)N)C(=O)NCC(=O)O)CSSC[C@H](N)C(=O)N1CCC[C@H]1C(=O)N[C@@H](C)C(=O)N[C@@H](C(C)C)C(=O)N2` [Q3A] (H-CPAVCPAIYQPVFDEFGRMYSNSCEMQRARCLRG-OH; disulfide 1-31, 5-24), the pKi is 6.94. The molecule `CC[C@H](C)[C@@H]1NC(=O)[C@H](C)NC(=O)[C@@H]2CCCN2C(=O)[C@@H]2CSSC[C@H](NC(=O)[C@H](CO)NC(=O)[C@H](CC(N)=O)NC(=O)[C@H](CO)NC(=O)[C@H](Cc3ccc(O)cc3)NC(=O)[C@H](CCSC)NC(=O)[C@H](CCCNC(=N)N)NC(=O)CNC(=O)[C@H](Cc3ccccc3)NC(=O)[C@H](CCC(=O)O)NC(=O)[C@H](CC(=O)O)NC(=O)[C@H](Cc3ccccc3)NC(=O)[C@H](C(C)C)NC(=O)[C@@H]3CCCN3C(=O)[C@H](C)NC(=O)[C@H](Cc3ccc(O)cc3)NC1=O)C(=O)N[C@@H](CCC(=O)O)C(=O)N[C@@H](CCSC)C(=O)N[C@@H](CCC(N)=O)C(=O)N[C@@H](CCCNC(=N)N)C(=O)N[C@@H](C)C(=O)N[C@@H](CCCNC(=N)N)C(=O)N[C@H](C(=O)N[C@@H](CC(C)C)C(=O)N[C@@H](CCCNC(=N)N)C(=O)NCC(=O)O)CSSC[C@H](N)C(=O)N1CCC[C@H]1C(=O)N[C@@H](CCC(N)=O)C(=O)N[C@@H](C(C)C)C(=O)N2` [Q10A] (H-CPQVCPAIYAPVFDEFGRMYSNSCEMQRARCLRG-OH; disulfide 1-31, 5-24) gave a pKi of 7.87. Against the preceding molecule, the pKi is 0.93 log units higher. On to `CC[C@H](C)[C@@H]1NC(=O)[C@H](C)NC(=O)[C@@H]2CCCN2C(=O)[C@@H]2CSSC[C@H](NC(=O)[C@H](CO)NC(=O)[C@H](CC(N)=O)NC(=O)[C@H](C)NC(=O)[C@H](Cc3ccc(O)cc3)NC(=O)[C@H](CCSC)NC(=O)[C@H](CCCNC(=N)N)NC(=O)CNC(=O)[C@H](Cc3ccccc3)NC(=O)[C@H](CCC(=O)O)NC(=O)[C@H](CC(=O)O)NC(=O)[C@H](Cc3ccccc3)NC(=O)[C@H](C(C)C)NC(=O)[C@@H]3CCCN3C(=O)[C@H](CCC(N)=O)NC(=O)[C@H](Cc3ccc(O)cc3)NC1=O)C(=O)N[C@@H](CCC(=O)O)C(=O)N[C@@H](CCSC)C(=O)N[C@@H](CCC(N)=O)C(=O)N[C@@H](CCCNC(=N)N)C(=O)N[C@@H](C)C(=O)N[C@@H](CCCNC(=N)N)C(=O)N[C@H](C(=O)N[C@@H](CC(C)C)C(=O)N[C@@H](CCCNC(=N)N)C(=O)NCC(=O)O)CSSC[C@H](N)C(=O)N1CCC[C@H]1C(=O)N[C@@H](CCC(N)=O)C(=O)N[C@@H](C(C)C)C(=O)N2` [S21A] (H-CPQVCPAIYQPVFDEFGRMYANSCEMQRARCLRG-OH; disulfide 1-31, 5-24), for which the pKi is 7.77. Molecule `CC[C@H](C)[C@@H]1NC(=O)[C@H](C)NC(=O)[C@@H]2CCCN2C(=O)[C@@H]2CSSC[C@H](NC(=O)[C@H](CO)NC(=O)[C@H](CC(N)=O)NC(=O)[C@H](CO)NC(=O)[C@H](Cc3ccc(O)cc3)NC(=O)[C@H](CCSC)NC(=O)[C@H](CCCNC(=N)N)NC(=O)CNC(=O)[C@H](Cc3ccccc3)NC(=O)[C@H](CCC(=O)O)NC(=O)[C@H](CC(=O)O)NC(=O)[C@H](Cc3ccccc3)NC(=O)[C@H](C(C)C)NC(=O)[C@@H]3CCCN3C(=O)[C@H](CCC(N)=O)NC(=O)[C@H](Cc3ccc(O)cc3)NC1=O)C(=O)N[C@@H](CCC(=O)O)C(=O)N[C@@H](CCSC)C(=O)N[C@@H](CCC(N)=O)C(=O)N[C@@H](CCCNC(=N)N)C(=O)N[C@@H](C)C(=O)N[C@@H](CCCNC(=N)N)C(=O)N[C@H](C(=O)N[C@@H](CC(C)C)C(=O)N[C@@H](CCCNC(=N)N)C(=O)NCC(=O)O)CSSC[C@H](N)C(=O)N1CCC[C@H]1C(=O)N[C@@H](CCC(N)=O)C(=O)N[C@@H](C)C(=O)N2` [V4A] (H-CPQACPAIYQPVFDEFGRMYSNSCEMQRARCLRG-OH; disulfide 1-31, 5-24) gave a pKi of 7.88. Molecule `CC[C@H](C)[C@@H]1NC(=O)[C@H](C)NC(=O)[C@@H]2CCCN2C(=O)[C@@H]2CSSC[C@H](NC(=O)[C@H](CO)NC(=O)[C@H](CC(N)=O)NC(=O)[C@H](CO)NC(=O)[C@H](Cc3ccc(O)cc3)NC(=O)[C@H](CCSC)NC(=O)[C@H](CCCNC(=N)N)NC(=O)CNC(=O)[C@H](Cc3ccccc3)NC(=O)[C@H](CCC(=O)O)NC(=O)[C@H](CC(=O)O)NC(=O)[C@H](Cc3ccccc3)NC(=O)[C@H](C(C)C)NC(=O)[C@@H]3CCCN3C(=O)[C@H](CCC(N)=O)NC(=O)[C@H](C)NC1=O)C(=O)N[C@@H](CCC(=O)O)C(=O)N[C@@H](CCSC)C(=O)N[C@@H](CCC(N)=O)C(=O)N[C@@H](CCCNC(=N)N)C(=O)N[C@@H](C)C(=O)N[C@@H](CCCNC(=N)N)C(=O)N[C@H](C(=O)N[C@@H](CC(C)C)C(=O)N[C@@H](CCCNC(=N)N)C(=O)NCC(=O)O)CSSC[C@H](N)C(=O)N1CCC[C@H]1C(=O)N[C@@H](CCC(N)=O)C(=O)N[C@@H](C(C)C)C(=O)N2` [Y9A] (H-CPQVCPAIAQPVFDEFGRMYSNSCEMQRARCLRG-OH; disulfide 1-31, 5-24) gave a pKi below 3.00.

As a reminder, the pKi is the negative decadic logarithm of the Ki, by convention in mol/L. Lower therefore signals a large Ki.

The values are drawn from paper PMC6950245, “Identification and Characterization of ShSPI, a Kazal-Type Elastase Inhibitor from the Venom of Scolopendra Hainanum” (Toxins, 2019).
